According to patent US10053463B2 (Janssen Pharmaceutica NV, priority 2013, dated 2018):

biological target: P2X7 (Homo sapiens (Human), UniProt Q99572); experiment: P2X7 antagonism in human peripheral blood mononuclear cells (PBMCs), IL-1β release; format: cell-based; conditions: P2X7; Table 3 (additional runs); 10 μM compound; read-out: PBMC 10 μM (% control)
Procedure: P2X7 Antagonism in Human Peripheral Blood Mononuclear Cells (PBMCs) and Human Whole Blood.
Human blood was collected using a blood donor program. PBMCs were isolated from blood using a Ficoll density gradient technique. Briefly, blood was laid on Ficoll solution and centrifuged at RT for 20 minutes at 2000 rpm. The buffy layer (between red blood cells and plasma) was carefully collected by aspiration, washed with PBS and centrifuged again at 1500 rpm for 15 minutes. The resulting cell pellet was washed and plated on 96 well-plates for experiments. For the Human Whole Blood experiments, 150 μl of human blood was platted on 96 well-plates. Lipopolysaccharide (LPS) (30 ng/ml) was added to each well and incubated for 1 hour. Test compounds were then added and incubated for 30 minutes. The P2X7 agonist, 2′(3′)-O-(4-benzoylbenzoyl) adenosine 5′-triphosphate (Bz-ATP) was then added at a final concentration of 0.5 mM (PBMC) or 1 mM (blood). Cells were incubated for an additional 1.5 hours. At that point, supernatant was collected and stored for IL-1β assay using manufacturer's protocol for enzyme-linked immunosorbent assay (ELISA). Data was expressed as percent control, where control is defined as the difference in IL-1β release in LPS+Bz-ATP samples and LPS only samples. Data was plotted as response (% control) versus concentration to generate IC50 values. […] Data are analyzed and graphed on Graphpad Prism 5. For analysis, each concentration point is averaged from triplicate values and the averaged values are plotted on Graphpad Prism.

Sequence of P2X7 (Q99572 whole entry): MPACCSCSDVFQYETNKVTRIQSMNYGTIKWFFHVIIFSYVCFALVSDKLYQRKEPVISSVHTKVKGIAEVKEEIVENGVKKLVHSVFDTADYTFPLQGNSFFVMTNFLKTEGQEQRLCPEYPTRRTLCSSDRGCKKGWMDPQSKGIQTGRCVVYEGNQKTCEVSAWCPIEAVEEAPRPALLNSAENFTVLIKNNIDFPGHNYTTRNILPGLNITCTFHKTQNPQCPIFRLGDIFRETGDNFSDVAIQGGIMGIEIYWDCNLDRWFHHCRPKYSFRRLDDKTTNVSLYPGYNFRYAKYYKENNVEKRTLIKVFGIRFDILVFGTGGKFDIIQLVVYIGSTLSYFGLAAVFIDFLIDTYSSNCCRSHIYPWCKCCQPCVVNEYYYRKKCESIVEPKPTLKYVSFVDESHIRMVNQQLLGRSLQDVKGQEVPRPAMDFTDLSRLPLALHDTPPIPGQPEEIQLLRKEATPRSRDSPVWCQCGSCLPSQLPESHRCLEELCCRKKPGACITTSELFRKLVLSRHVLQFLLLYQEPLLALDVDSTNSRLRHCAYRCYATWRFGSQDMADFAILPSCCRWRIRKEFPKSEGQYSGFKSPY

SMILES	remaining activity at 10 µM [%]
Cc1ncsc1-c1nnc2n1C[C@H](C)N(Cc1cccc(C(F)(F)F)c1Cl)C2=O [Example 40, (6S)-7-[2-Chloro-3-(trifluoromethyl)benzyl]-6-methyl-3-(4-methyl-1,3-thiazol-5-yl)-6,7-dihydro[1,2,4]triazolo[4,3-a]pyrazin-8(5H)-one]	22.3
C[C@H]1Cn2c(nnc2-c2ncc(Br)cn2)C(=O)N1Cc1cccc(C(F)(F)F)c1Cl [Example 42, (6S)-3-(5-Bromopyrimidin-2-yl)-7-[2-chloro-3-(trifluoromethyl)benzyl]-6-methyl-6,7-dihydro[1,2,4]triazolo[4,3-a]pyrazin-8(5H)-one]	37.4
C[C@H]1Cn2c(nnc2-c2ccncc2)C(=O)N1Cc1cccc(C(F)(F)F)c1Cl [Example 47, (6S)-7-[2-Chloro-3-(trifluoromethyl)benzyl]-6-methyl-3-pyridin-4-yl-6,7-dihydro[1,2,4]triazolo[4,3-a]pyrazin-8(5H)-one]	-1.3
C[C@H]1Cn2c(nnc2C2CC2)C(=O)N1Cc1cccc(C(F)(F)F)c1Cl [Example 50, (6S)-7-[2-Chloro-3-(trifluoromethyl)benzyl]-3-cyclopropyl-6-methyl-6,7-dihydro[1,2,4]triazolo[4,3-a]pyrazin-8(5H)-one]	8.7
C[C@H]1Cn2c(nnc2C2CCCCC2)C(=O)N1Cc1cccc(C(F)(F)F)c1Cl [Example 51, (6S)-7-[2-Chloro-3-(trifluoromethyl)benzyl]-3-cyclohexyl-6-methyl-6,7-dihydro[1,2,4]triazolo[4,3-a]pyrazin-8(5H)-one]	22.4
C[C@H]1Cn2c(nnc2C2CCOCC2)C(=O)N1Cc1cccc(C(F)(F)F)c1Cl [Example 53, (6S)-7-[2-Chloro-3-(trifluoromethyl)benzyl]-6-methyl-3-(tetrahydro-2H-pyran-4-yl)-6,7-dihydro[1,2,4]triazolo[4,3-a]pyrazin-8(5H)-one]	33.2
C[C@H]1Cn2c(nnc2-c2nccc(C(F)(F)F)n2)C(=O)N1Cc1cccc(C(F)(F)F)c1Cl [Example 54, (6S)-7-[2-chloro-3-(trifluoromethyl)benzyl]-6-methyl-3-[4-(trifluoromethyl)pyrimidin-2-yl]-6,7-dihydro[1,2,4]triazolo[4,3-a]pyrazin-8(5H)-one]	4.2
C[C@H]1Cn2c(nnc2-c2ccc(Cl)cn2)C(=O)N1Cc1cccc(C(F)(F)F)c1Cl [Example 56, (6S)-3-(5-Chloropyridin-2-yl)-7-[2-chloro-3-(trifluoromethyl)benzyl]-6-methyl-6,7-dihydro[1,2,4]triazolo[4,3-a]pyrazin-8(5H)-one]	11.2
Cc1cncc(-c2nnc3n2C[C@H](C)N(Cc2cccc(C(F)(F)F)c2Cl)C3=O)c1 [Example 57, (6S)-7-[2-Chloro-3-(trifluoromethyl)benzyl]-6-methyl-3-(5-methylpyridin-3-yl)-6,7-dihydro[1,2,4]triazolo[4,3-a]pyrazin-8(5H)-one]	0.1
C[C@H]1Cn2c(nnc2C2CCN(C(=O)OC(C)(C)C)C2)C(=O)N1Cc1cccc(C(F)(F)F)c1Cl (stereo partly drawn) [Example 58, (6S)-tert-Butyl3-{7-[2-chloro-3-(trifluoromethyl)benzyl]-6-methyl-8-oxo-5,6,7,8-tetrahydro[1,2,4]triazolo[4,3-a]pyrazin-3-yl}pyrrolidine-1-carboxylate]	24.6
CC[C@H]1Cn2c(nnc2-c2cnccn2)C(=O)N1Cc1cccc(C(F)(F)F)c1Cl [Example 71, (6S)-7-[2-Chloro-3-(trifluoromethyl)benzyl]-6-ethyl-3-pyrazin-2-yl-6,7-dihydro[1,2,4]triazolo[4,3-a]pyrazin-8(5H)-one]	1.2
CC[C@H]1Cn2c(nnc2-c2ncccn2)C(=O)N1Cc1cccc(C(F)(F)F)c1Cl [Example 72, (6S)-7-[2-Chloro-3-(trifluoromethyl)benzyl]-6-ethyl-3-pyrimidin-2-yl-6,7-dihydro[1,2,4]triazolo[4,3-a]pyrazin-8(5H)-one]	1.9
CC[C@H]1Cn2c(nnc2-c2cc[nH]n2)C(=O)N1Cc1cccc(C(F)(F)F)c1Cl [Example 74, (6S)-7-[2-Chloro-3-(trifluoromethyl)benzyl]-6-ethyl-3-(1H-pyrazol-3-yl)-6,7-dihydro[1,2,4]triazolo[4,3-a]pyrazin-8(5H)-one]	0.3
CC[C@H]1Cn2c(nnc2-c2ncc(F)cn2)C(=O)N1Cc1cccc(C(F)(F)F)c1Cl [Example 75, (6S)-7-[2-Chloro-3-(trifluoromethyl)benzyl]-6-ethyl-3-(5-fluoropyrimidin-2-yl)-6,7-dihydro[1,2,4]triazolo[4,3-a]pyrazin-8(5H)-one]	22.6
C[C@H]1Cn2c(nnc2-c2cnccn2)C(=O)N1Cc1ccc(F)cc1Cl [Example 78, (6S)-7-(2-Chloro-4-fluorobenzyl)-6-methyl-3-pyrazin-2-yl-6,7-dihydro[1,2,4]triazolo[4,3-a]pyrazin-8(5H)-one]	8.3

Continued, values first:

remaining activity at 10 µM [%]	SMILES
35	C[C@H]1Cn2c(nnc2-c2ccon2)C(=O)N1Cc1cccc(C(F)(F)F)c1Cl [Example 41, (6S)-7-[2-Chloro-3-(trifluoromethyl)benzyl]-3-isoxazol-3-yl-6-methyl-6,7-dihydro[1,2,4]triazolo[4,3-a]pyrazin-8(5H)-one]
26	C[C@H]1Cn2c(nnc2-c2cccnn2)C(=O)N1Cc1cccc(C(F)(F)F)c1Cl [Example 44, (6S)-7-[2-Chloro-3-(trifluoromethyl)benzyl]-6-methyl-3-pyridazin-3-yl-6,7-dihydro[1,2,4]triazolo[4,3-a]pyrazin-8(5H)-one]
20.1	C[C@H]1Cn2c(nnc2-c2cncc(F)c2)C(=O)N1Cc1cccc(C(F)(F)F)c1Cl [Example 45, (6S)-7-[2-Chloro-3-(trifluoromethyl)benzyl]-3-(5-fluoropyridin-3-yl)-6-methyl-6,7-dihydro[1,2,4]triazolo[4,3-a]pyrazin-8(5H)-one]
2.7	Cc1cccc(-c2nnc3n2C[C@H](C)N(Cc2cccc(C(F)(F)F)c2Cl)C3=O)n1 [Example 46, (6S)-7-[2-Chloro-3-(trifluoromethyl)benzyl]-6-methyl-3-(6-methylpyridin-2-yl)-6,7-dihydro[1,2,4]triazolo[4,3-a]pyrazin-8(5H)-one]
0	Cc1ncccc1-c1nnc2n1C[C@H](C)N(Cc1cccc(C(F)(F)F)c1Cl)C2=O [Example 48, (6S)-7-[2-Chloro-3-(trifluoromethyl)benzyl]-6-methyl-3-(2-methylpyridin-3-yl)-6,7-dihydro[1,2,4]triazolo[4,3-a]pyrazin-8(5H)-one]
-3.1	C[C@H]1Cn2c(nnc2C2CCC2)C(=O)N1Cc1cccc(C(F)(F)F)c1Cl [Example 49, (6S)-7-[2-Chloro-3-(trifluoromethyl)benzyl]-3-cyclobutyl-6-methyl-6,7-dihydro[1,2,4]triazolo[4,3-a]pyrazin-8(5H)-one]
13.8	C[C@H]1Cn2c(nnc2-c2cncc(Cl)c2)C(=O)N1Cc1cccc(C(F)(F)F)c1Cl [Example 52, (6S)-3-(5-Chloropyridin-3-yl)-7-[2-chloro-3-(trifluoromethyl)benzyl]-6-methyl-6,7-dihydro[1,2,4]triazolo[4,3-a]pyrazin-8(5H)-one]
8.5	C[C@H]1Cn2c(nnc2-c2cccc(C(F)(F)F)n2)C(=O)N1Cc1cccc(C(F)(F)F)c1Cl [Example 55, (6S)-7-[2-Chloro-3-(trifluoromethyl)benzyl]-6-methyl-3-[6-(trifluoromethyl)pyridin-2-yl]-6,7-dihydro[1,2,4]triazolo[4,3-a]pyrazin-8(5H)-one]
17.1	C[C@H]1Cn2c(nnc2C2CCCNC2)C(=O)N1Cc1cccc(C(F)(F)F)c1Cl (stereo partly drawn) [Example 60, (6S)-7-[2-Chloro-3-(trifluoromethyl)benzyl]-6-methyl-3-piperidin-3-yl-6,7-dihydro[1,2,4]triazolo[4,3-a]pyrazin-8(5H)-one]
6.2	CC[C@H]1Cn2c(nnc2-c2cccnc2)C(=O)N1Cc1cccc(C(F)(F)F)c1Cl [Example 73, (6S)-7-[2-Chloro-3-(trifluoromethyl)benzyl]-6-ethyl-3-pyridin-3-yl-6,7-dihydro[1,2,4]triazolo[4,3-a]pyrazin-8(5H)-one]
16.9	CC[C@H]1Cn2c(nnc2-c2ccc(F)cn2)C(=O)N1Cc1cccc(C(F)(F)F)c1Cl [Example 76, (6S)-7-[2-Chloro-3-(trifluoromethyl)benzyl]-6-ethyl-3-(5-fluoropyridin-2-yl)-6,7-dihydro[1,2,4]triazolo[4,3-a]pyrazin-8(5H)-one]
105	C[C@H]1Cn2c(nnc2-c2cnccn2)C(=O)N1 [Example 77, (6S)-6-Methyl-3-pyrazin-2-yl-6,7-dihydro[1,2,4]triazolo[4,3-a]pyrazin-8(5H)-one]
15.6	C[C@H]1Cn2c(nnc2-c2cnccn2)C(=O)N1Cc1ccccc1 [Example 79, (6S)-7-Benzyl-6-methyl-3-pyrazin-2-yl-6,7-dihydro[1,2,4]triazolo[4,3-a]pyrazin-8(5H)-one]

same assay, conditions: Table 2; 10 μM compound; IL-1β release, LPS + 0.5 mM Bz-ATP

SMILES	PBMC 10 μM (% control)
CC[C@H]1Cn2c(nnc2-c2cnccn2)C(=O)N1Cc1cccc(C(F)(F)F)c1Cl [Example 71, (6S)-7-[2-Chloro-3-(trifluoromethyl)benzyl]-6-ethyl-3-pyrazin-2-yl-6,7-dihydro[1,2,4]triazolo[4,3-a]pyrazin-8(5H)-one]	1.2
